Test results from patent US20050239873A1 (priority 1999, published 2005).

How the values were obtained:
[1] = system: plasma proteins; assay: Binding to plasma proteins (ultrafiltration); format: in vitro ADME, dog; settings: presence of NaF+EDTA, 1000 ng/ml
Procedure: (§1) Solutions of 2-OMe antimycin A3 were diluted with plasma (dog or human) containing NaF+EDTA to final concentrations of 1.0 or 0.2 μg/ml. Controls were diluted with water to the same final concentrations. These preparations were incubated at 37° C. for 20 min, at which time portions were taken and placed in the sample reservoirs of Amicon Centrifree® ultrafiltration systems (Millipore Co., Bedford, Mass.). At 37° C., the filter systems were centrifuged until the reservoirs were dry. From each filtrate, portions were taken for analysis by HPLC. The amounts present were designated as “free drug” (F). The concentrations of the unfiltered solutions were also determined by triplicate analyses. This amount represented the “total drug” concentration (T). The percentage of 2-OMe antimycin A3 bound to plasma proteins was calculated by the following formula: % bound=((T−F)/T)×100
Similar experiments were performed for 2-OMe antimycin A3 in dog or rat plasma in the absence of NaF/EDTA.

[2] = Stability in plasma; format: in vitro ADME, mouse; settings: for stability: 37° C., 60 min
Procedure: (§2) For analysis of samples, two volumes of cold methanol-acetonitrile (50:50, v/v) were added to portions of plasma, culture medium, or cell extract. The preparations were mixed and then centrifuged to obtain clear supernatants, which were dried at room temperature by compressed air. The residues were dissolved in the mobile phase, and a portion was injected onto the HPLC column.
(§3) The HPLC equipment consisted of a Hewlett Packard 1050 ChemStation with a fluorescence detector (Agilent 100 series). […] The mobile phase was methanol:ammonium acetate buffer (87:13 v/v; 0.2 M; pH 5.8, adjusted with HCl). The flow rate was 1 ml/min. The column elute was monitored fluorometrically at an excitation wavelength of 232 nm and an emission wavelength of 418 nm. The amounts of test compounds present in samples were determined from the peak areas.
(§4) Samples of mouse, rat, dog, and human plasma were incubated at 37° C. with and without addition of NaF (2.5 mg/ml) and EDTA (1 mg/ml). To these preparations, 2-OMe antimycin A1, 2-OMe antimcyin A2, 2-OMe antimycin A3, or 2-OMe antimycin A5, dissolved in methanol, was added to final concentrations of 500 ng/ml. Portions of plasma, taken at selected times after addition of the 2-OMe antimycin analog, were extracted and analyzed.
(§5) Similarly, the stability of 2-OMe antimycin A1, 2-OMe antimycin A2, […] in the plasma from mice and humans was evaluated at −80° C. From these preparations, portions were analyzed immediately; other portions were stored at -80° C. and analyzed after 1, 2, and 4 weeks.

[3] = system: RPMI-8226 cells; assay: GI50 assay (MTT); format: cell-based, human
Procedure: RPMI 8226 cells were grown in 96 well plates for 24 h prior to addition of 2-methoxy Antimycins. Antimycin stocks in DMSO were serially diluted in RPMI media. Cells were incubated for 48 h with compounds at final compound concentrations ranging from 10^−4 to 10^−8 M. MTT assays were performed in quadruplicate and percent growth inhibitions were calculated as (A570 (control cells)—A570 (treated cells))/A570 (control cells). The GI50 was extrapolated from semi-log plots of the dose response for each compound. […] After 72 h drug exposures, 1 μCi/ml [^3H]-thymidine was added to wells. Cells were incubated for an additional 24 h, and then transferred to GF/C filter plates (Packard) using a plate washer. Filters were dried, added to scintillant, and counted in a TopCount scintillation counter (Packard). Drug response was expressed as the percentage of vehicle-treated controls, and each value shown as the average of three determinations.

[4] = system: plasma proteins; assay: Binding to plasma proteins (ultrafiltration); format: in vitro ADME, rat; settings: presence of NaF+EDTA, 1000 ng/ml
[5] = system: plasma proteins; assay: Binding to plasma proteins (ultrafiltration); format: in vitro ADME, mouse; settings: presence of NaF+EDTA, 1000 ng/ml
Procedure: as §1

[6] = Stability in plasma; format: in vitro ADME, human; settings: for stability: 60 min
Procedure: as §2, §3, §4, §5

[7] = Stability in plasma; format: in vitro ADME, dog; settings: 37° C., 60 min; for stability: presence of NaF/EDTA
Procedure: as §2, §3, §4

[8] = system: plasma proteins; assay: Binding to plasma proteins (ultrafiltration); format: in vitro ADME, human; settings: presence of NaF+EDTA, 1000 ng/ml
Procedure: as §1

[9] = Stability in plasma; format: in vitro ADME, rat; settings: 37° C., 60 min, presence of NaF/EDTA
Procedure: as §2, §3, §4

[10] = system: TABX2S cells (over-expressing Bcl-xL); assay: cells
Text: Briefly, a DNA fragment encoding the full-length mouse BCl-xL cDNA was isolated from the plasmid PBS.BCL-xL (Tzung et al., Am. J. Path. 150:1985-1995, 1997, incorporated herein by reference in its entirety) by digestion with the restriction endonuclease EcoRI. This EcoRI fragment was cloned into the EcoRI site of the mammalian expression vector pSFFV (Fuhlbrigge et al., Proc. Nat. Acad. Sci. USA 85:5649-5653, 1988) in both sense and antisense orientations, to form expression plasmids pSFFV.Bcl-xL(sense) or pSFFV.Bcl-xL(antisense), respectively. The tumorigenic murine hepatocyte cell line TAMH was transfected by lipofection (Lipofectamine, Life Technologies, Rockville, Md., according to the manufacturer's recommendations) with the plasmids pSFFV.neo (the control), pSFFV.Bcl-xL(sense) or pSFFV.Bcl-xL(antisense). […] Transfectants were selected for the acquisition of neomycin resistance by growing cells in the presence of 750 μg/ml of G418. Bulk transfectants were cloned by limiting dilution and individual clones were screened by immunoblot analysis to determine the level of BCl-xL protein expression as described below.
Selected transfectants were then tested for whole cell sensitivity to several apoptotic agents. Transfected cells were cultured to reach approximately 80% confluency prior to plating an equal number of cells from selected clones on 12-well tissue culture plates. The transplanted cells were treated with the following apoptotic agents: 5 μM doxorubicin for 48 hours; 5 μM cisplatin for 48 hours; or with 200 U/ml tumor necrosis factor (TNF) plus 1 μg/ml actinomycin D for 18 hours. Cell viability was determined by trypan blue dye exclusion. The percentage of viable cells was calculated by the number of viable cells (treated with a particular apoptogenic agent) divided by the number in the control group (untreated).
TABX2S cells and TABX1A cells were also examined for the effects of various mitochondrial inhibitors. […] Azide was diluted from an aqueous stock solution. […] Controls received an equivalent concentration of diluent. At various time points after drug treatment, cells were trypsinized, and cell viability was determined by trypan blue dye exclusion. The number of viable cells were counted and normalized to control group (i.e., % control=number of viable cells (treated group)/number of viable cells (control group)×100).

| SMILES | Protein binding, Dog [1] [%] | stability ([2]; presence of NaF/EDTA) | amounts remaining after 4 weeks ([2]; -80° C., presence of NaF/EDTA) [%] | amounts remaining after 4 weeks ([2]; −80° C., absence of NaF/EDTA) [%] | GI50 ([3]; 48 h, MTT) [µM] | Protein binding, Rat [4] [%] | Protein binding, Mouse [5] [%] | stability ([6]; 37° C., presence of NaF/EDTA) | decrease in concentration ([6]; 37° C., presence of NaF/EDTA) [%] | amounts remaining after 4 weeks ([6]; -80° C., presence of NaF/EDTA) [%] | amounts remaining after 4 weeks ([6]; −80° C., absence of NaF/EDTA) [%] | added amount remaining ([7]; absence of NaF/EDTA, 500 ng/ml) [%] | stability [7] | Protein binding, Human [8] [%] | stability [9] | activity relative to 2-OMeA1, 2-OMeA2 and 2-OMeA3 (GI50) [3] | difference in sensitivity of the two cell lines ([10]; TABX2S vs TABX1A) | time until cell death apparent ([10]; after treatment, TABX2S and TABX1A cells) |
| --- | --- | --- | --- | --- | --- | --- | --- | --- | --- | --- | --- | --- | --- | --- | --- | --- | --- | --- |
| CCCCCC[C@H]1C(=O)O[C@H](C)[C@H](NC(=O)c2cccc(NC=O)c2OC)C(=O)O[C@@H](C)[C@@H]1OC(=O)CCC [2-OMeA2, 2-methoxy antimycin A2] | 99.9 | generally stable | 77 | 63 | 12.2 | 99.9 | 99.7 | generally stable | 18 | 83 | 70 | 53 | generally stable | >99.9 | generally stable | – | – | – |
| CC[C@H]1C(=O)O[C@H](C)[C@H](NC(=O)c2cccc(NC=O)c2OC)C(=O)O[C@@H](C)[C@@H]1OC(=O)CC(C)C [2-OMeA5, 2-OMe antimycin A5] | 99.1 | notable decreases in concentration | 63 | 27 | – | >99.9 | 99.7 | stable | – | 92 | 79 | – | stable | 99.6 | notable decreases in concentration | approximately ⅓ | – | – |
| CC(C)[C@@H]1NC(=O)[C@H](C)OC(=O)[C@@H](C(C)C)NC(=O)[C@@H](C(C)C)OC(=O)[C@H](C(C)C)NC(=O)[C@H](C)OC(=O)[C@@H](C(C)C)NC(=O)[C@@H](C(C)C)OC(=O)[C@H](C(C)C)NC(=O)[C@H](C)OC(=O)[C@@H](C(C)C)NC(=O)[C@@H](C(C)C)OC1=O [valinomycin] | – | – | – | – | – | – | – | – | – | – | – | – | – | – | – | – | no significant differences | six to eight |
